Tests used:
[1] = system: normal primary NK cells, pool 2 (3 donors) (IL-2 2.5 ng/mL); assay: drug sensitivity score (DSS) (DSS units); higher = more sensitive; extreme values may be limits of the assay; details: 72 h
[2] = system: NK-YS (IL-2 2.5 ng/mL); assay: as above; details: 72 h
[3] = system: NK-92 (IL-2 2.5 ng/mL); assay: as above; details: 72 h
[4] = system: KAI3 (IL-2 2.5 ng/mL); assay: as above; details: 72 h
[5] = system: KHYG-1 (IL-2 2.5 ng/mL); assay: as above; details: 72 h
[6] = system: SNK-6 (IL-2 2.5 ng/mL); assay: as above; details: 72 h
[7] = system: YT (IL-2 2.5 ng/mL); assay: as above; details: 72 h
[8] = system: normal primary NK cells, pool 1 (3 donors) (IL-2 2.5 ng/mL); assay: as above; details: 72 h
[9] = system: NKL (IL-2 2.5 ng/mL); assay: as above; details: 72 h
[10] = system: normal primary NK cells, pool 3 (3 donors) (IL-2 2.5 ng/mL); assay: as above; details: 72 h
[11] = system: DERL-7 (IL-2 2.5 ng/mL); assay: as above; details: 72 h
[12] = system: IMC-1 (IL-2 20 ng/mL); assay: as above; details: 72 h
[13] = system: normal primary NK cells, pool 1 (3 donors), resting (IL-2 0 ng/mL); assay: as above; details: 72 h
[14] = system: normal primary NK cells, pool 2 (3 donors) (IL-2 2.5 ng/mL); assay: percent inhibition of viability; higher = more inhibition; details: 72 h
[15] = system: NK-YS (IL-2 2.5 ng/mL); assay: as above; details: 72 h
[16] = system: NK-92 (IL-2 2.5 ng/mL); assay: as above; details: 72 h
[17] = system: KAI3 (IL-2 2.5 ng/mL); assay: as above; details: 72 h
[18] = system: KHYG-1 (IL-2 2.5 ng/mL); assay: as above; details: 72 h
[19] = system: SNK-6 (IL-2 2.5 ng/mL); assay: as above; details: 72 h
[20] = system: YT (IL-2 2.5 ng/mL); assay: as above; details: 72 h
[21] = system: normal primary NK cells, pool 1 (3 donors) (IL-2 2.5 ng/mL); assay: as above; details: 72 h
[22] = system: NKL (IL-2 2.5 ng/mL); assay: as above; details: 72 h
[23] = system: normal primary NK cells, pool 3 (3 donors) (IL-2 2.5 ng/mL); assay: as above; details: 72 h
[24] = system: DERL-7 (IL-2 2.5 ng/mL); assay: as above; details: 72 h
[25] = system: IMC-1 (IL-2 20 ng/mL); assay: as above; details: 72 h
[26] = system: normal primary NK cells, pool 1 (3 donors), resting (IL-2 0 ng/mL); assay: as above; details: 72 h
[27] = system: normal NK cells expanded with K562-aAPC; assay: as above; details: 72 h, IL-2 2.5 ng/mL
Description: (§1)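 Drug sensitivity and resistance testing on K562-aAPC-expanded normal NK cells: 5 concentrations (10-fold steps over a 10,000-fold range), 72 h at 37 °C, viability by CellTiter-Glo normalised to DMSO and benzethonium chloride controls; DSS from the fitted curve.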

[28] = system: normal NK cells expanded with K562-aAPC; assay: drug sensitivity score (DSS) (DSS units); higher = more sensitive; extreme values may be limits of the assay; details: 72 h; IL-2 2.5 ng/mL
Description: as §1

COc1cc2c(cc1O)CC[C@@H]1[C@@H]2CC[C@]2(C)[C@@H](O)CC[C@@H]12 [2-methoxyestradiol] (max concentration tested 10000 nM)
Details	drug sensitivity score
[1]	0.33
[2]	15
[3]	21.1
[4]	9.37
[5]	17.6
[6]	14
[7]	15.9
[8]	1.6
[9]	17.5
[10]	0
[11]	14.2
[12]	12.8
[13]	1.87
[28]	4.38

percent inhibition of viability [%]
Details	1 nM	10 nM	100 nM	1000 nM	10000 nM
[14]	-5.21	-10.5	-5.24	0.1	16.3
[15]	-6.42	-2.65	5.43	77.6	66
[16]	-11.8	-5.92	24.8	96.2	92.4
[17]	-6.2	-3.7	1.79	50	57.4
[18]	-6.84	-2.25	-0.37	97.8	97.9
[19]	15.9	5.08	4.83	72.8	66.2
[20]	-5.93	2.82	1.11	86.5	92.7
[21]	-5.08	0.22	-0.63	10	19.8
[22]	-3.96	-6.41	12.5	85.8	90.6
[23]	-10.4	-14	-8.74	-10.1	2.72
[24]	-1.82	1.54	2.89	73.2	98.9
[25]	-3.9	0.72	-4.99	63.4	98.5
[26]	-17.5	-7.16	17.8	3.53	29.8
[27]	-7.6	-11.6	-10.8	9.36	53

CCN1CCN(c2ccc(Nc3cc(N(C)C(=O)Nc4c(Cl)c(OC)cc(OC)c4Cl)ncn3)cc2)CC1 [NVP-BGJ398] (max concentration tested 1000 nM)
Details	drug sensitivity score
[1]	0.05
[2]	0
[3]	3.27
[4]	0
[5]	1.3
[6]	0
[7]	0.2
[8]	0
[9]	0.59
[10]	0
[11]	0
[12]	0
[13]	1.18
[28]	0

percent inhibition of viability [%]
Details	0.1 nM	1 nM	10 nM	100 nM	1000 nM
[14]	-8.08	5.48	12.3	1.57	12.6
[15]	-4.6	-4.02	-4.62	-2.71	6.5
[16]	-11.4	1.56	9.63	19.4	17.8
[17]	-2.53	-7.26	-1.75	2.95	5.14
[18]	-6.77	-2.35	-1.84	3.9	22.1
[19]	-1.53	-0.29	-14.4	-13.1	-6.84
[20]	-2.36	0.47	-1.37	5.31	11.7
[21]	4.34	9.33	11.6	4.78	12.1
[22]	-0.94	-7.47	0.95	4.24	15
[23]	-6.2	7.43	9.02	0.22	7.33
[24]	2.66	5.38	2.13	4.05	8.48
[25]	-7.18	3.41	-1.12	4.31	-1.42
[26]	-6.47	4.3	1.93	4.77	19.9
[27]	-0.93	-6.78	-4.9	4.74	2.68

C=CC[C@@H]1/C=C(\C)C[C@H](C)C[C@H](OC)[C@H]2O[C@@](O)(C(=O)C(=O)N3CCCC[C@H]3C(=O)O[C@H](/C(C)=C/[C@@H]3CC[C@@H](O)[C@H](OC)C3)[C@H](C)[C@@H](O)CC1=O)[C@H](C)C[C@@H]2OC [Tacrolimus] (max concentration tested 10000 nM)
Details	drug sensitivity score
[1]	1.72
[2]	1.16
[3]	2.16
[4]	0
[5]	0.17
[6]	0.32
[7]	1.73
[8]	2.93
[9]	0
[10]	0
[11]	0.55
[12]	0.7
[13]	6.54
[28]	0

percent inhibition of viability [%]
Details	1 nM	10 nM	100 nM	1000 nM	10000 nM
[14]	6.61	4.19	3.62	3.15	28.9
[15]	1.38	-3.09	1.86	5.94	19.8
[16]	-18.9	-10.1	-13.5	5.35	30.1
[17]	-0.56	6.96	5.19	-3.38	1.06
[18]	-2.54	-4.56	1.9	0.69	13.5
[19]	6.17	-4.96	-13.1	-0.42	16.6
[20]	0.78	-1.87	1.16	5.77	24.4
[21]	-2.12	0.6	4.89	4.45	43.2
[22]	-8.22	-6.4	-3.18	8.38	3.72
[23]	10.7	1.86	-0.29	-2.25	1.84
[24]	-6.89	-0.55	-1.59	-6.35	23
[25]	1.61	-1.68	-1.5	-2.11	23.3
[26]	-2.76	-12.4	9.06	17.2	71.7
[27]	-12.2	-4.97	-9.06	-4.26	-5.39

CCOC(=O)CCNc1cc(N2CCc3ccccc3CC2)nc(-c2ccccn2)n1 [GSK-J4] (max concentration tested 100000 nM)
Details	drug sensitivity score
[1]	17.5
[2]	17.6
[3]	25.2
[4]	17.5
[5]	21.2
[6]	18.1
[7]	18.9
[8]	20.2
[9]	17.6
[10]	19.8
[11]	18.9
[12]	22.9
[13]	22.6
[28]	16.9

percent inhibition of viability [%]
Details	10 nM	100 nM	1000 nM	10000 nM	100000 nM
[14]	-5.62	-2.09	5.39	92.4	98.7
[15]	-1.22	-3.86	-1.41	98.6	99.6
[16]	-9.95	-0.92	60.9	104	98.1
[17]	-4.58	1.93	2.78	94.3	98.9
[18]	-1.03	-1.4	20	101	99.2
[19]	-0.34	7.09	6.11	94.8	99.7
[20]	-1.98	-3.85	4.52	104	99.3
[21]	-2.65	-4.87	13.6	97.9	99.8
[22]	-0.55	-7.46	-8.29	104	98.2
[23]	-2.08	-5.17	19.9	94	99.5
[24]	-0.14	7.18	14.4	93.4	99.4
[25]	-5.61	-2.96	39.7	97	100
[26]	-7.04	-16	34.7	96.2	99
[27]	-1.25	-3.45	-1.63	93.7	99.5

COc1cc2ncnc(Nc3ccc(F)c(Cl)c3)c2cc1OCCCN1CCOCC1 [Gefitinib] (max concentration tested 10000 nM)
Details	drug sensitivity score
[1]	2.32
[2]	2.2
[3]	4.15
[4]	4.99
[5]	6.6
[6]	9.38
[7]	3.98
[8]	0.66
[9]	5.38
[10]	1.42
[11]	4.07
[12]	0.3
[13]	3
[28]	5.01

percent inhibition of viability [%]
Details	1 nM	10 nM	100 nM	1000 nM	10000 nM
[14]	-22.1	-19.1	6.35	2.61	39.1
[15]	-1.51	1.15	7.36	7.9	30.8
[16]	-2.12	5.54	-3.03	4.12	64.8
[17]	0.49	-0.54	-4.64	11.8	56.9
[18]	-2.54	5.78	8.11	9.75	89.9
[19]	25.8	34.7	27.6	9.98	42.4
[20]	-3.09	5.08	4.23	5.38	57.6
[21]	-0.53	-12.4	-3.97	-11.3	26.3
[22]	-4.33	-6.47	-2.03	12	62.4
[23]	-15.3	-8.24	11.2	-13.2	40.1
[24]	3.62	-2.09	5.77	1.47	70.4
[25]	-4.89	1.4	2.3	2.27	13.5
[26]	-4.9	-15.9	-4.48	-7.6	64.4
[27]	-4.93	-2.95	-4.74	12.3	56.2

Source: the supplement of paper PMC5908809
